According to patent US9649292B2, “Method for treating prostate cancer and/or gastrointestinal cancer” (King Fahd University of Petroleum and Minerals, priority 2015, dated 2017):
pIC50: −log10 of the molar value.

Columns and labels:
[1] = system: PC3 cells; experiment: MTT assay for antiproliferative effects at fixed concentration; format: cell-based, human; conditions: PC3, 10 μM, 24 and 72 h
Method: (§1) An MTT assay was used to obtain the number of living cells in the sample. Human gastric cancer SGC7901 and prostate cancer PC3 cells were seeded on 96-well plates at a predetermined optimal cell density, i.e. ca. 6,000 cells/100 μL per well in 96-well plates, to ensure exponential growth in the duration of the assay. After 24 h pre-incubation, the growth medium was replaced with the experimental medium containing the appropriate drug, using one of gold(III) compounds 1, 2 and 3 or a control using water. Six duplicate wells were set up for each sample, and cells untreated with drug served as a control. In one set of culture plates, human gastric cancer SGC7901 and human prostate PC3 cells were treated with 10 μM compounds 1, 2 and 3 as the drug and the control (water) for 24, 48 and 72 h. In other sets, the compounds 1, 2 and 3 with different concentration, i.e. 10, 20 and 30 μM, were employed to determine the growth inhibitory effect for both PC3 and SGC7901cells separately. After incubation, 10 μL MTT (6 g/L, Sigma) was added to each well and the incubation was continued for 4 h at 37° C. After removal of the medium, MTT stabilization solution [dimethylsulfoxide (DMSO): ethanol (C2H5OH)=1:1 in v/v ratio] was added to each well, and shaken for 10 min until all crystals were dissolved. Then, the optical density was detected in a micro plate reader at 550 nm wavelength using an Enzyme-Linked Immuno-Sorbent Assay (ELISA) reader. After being treated with gold(III) complexes 1, 2 and 3, the cell viability was examined by MTT assay. Each assay was performed in triplicate. An MTT assay for the inhibitory effect has been used for compounds 1, 2 and 3 against PC3 and SGC7901 cells. These cells were treated with various concentrations of compounds 1, 2 and 3 for 24-72 h.

[2] = system: SGC7901 cells; experiment: as above; format: cell-based, human; conditions: SGC7901, 10 μM, 24 and 72 h
Method: as §1

[3] = Cyclic voltammetry in phosphate buffer; format: physicochemical; conditions: phosphate buffer pH 7.4, platinum electrode, 50 mV/s, 1.0 mM
Method: The electrochemical experiments were performed at room temperature using a potentiostat (SP-300, Bio-Logic Science Instruments) controlled by EC-Lab v10.34 software package. The electrochemical experiments were performed at room temperature. All the measurements were performed on solutions de-aerated by bubbling ultra-pure nitrogen for 15 min. The values of reduction potential here reported were measured against a saturated calomel electrode (SCE). The cyclic voltammetry of the compounds 1, 2 and 3 were measured at scan rate of 50 mV/s on a reference buffer (40 mM phosphate, 4 mM NaCl, pH 7.4) using platinum as working electrode and graphite as a counter electrode with a concentration of 1.0 mM at room temperature. Ferrocene was used as pseudo reference to calibrate the working electrode. The couple FeIII/II formal potential of ferrocene occur at E^o/=+0.44 V (vs SCE) in 0.1 MBu4NPF6 solution in CH3CN solvent which is similar to the report value under the same experimental condition [Hans J, Beckmann A, Kruger H-J (1999) Stabilization of Copper(III) ions with deprotonated hydroxyiminoamide ligands: syntheses, structures, and electronic properties of Copper(III) and Copper(III) complexes. Eur J Inorg Chem 1:163-172—incorporated herein by reference in its entirety]. Conversion to values vs ENH was obtained upon adding +0.24 V to the corresponding SCE values.
Gold(III) complexes 1, 2 and 3 show one irreversible reduction process in which the controlled potential coulometry involves three electrons per mole. The occurrence of Au(III)/Au(0) reduction is visually indicated by the appearance of a thin gold layer deposited on the platinum electrode surface after exhaustive electrolysis (Ew, −0.7 V).

[4] = system: PC3 cells; experiment: In vitro cytotoxic MTT assay, IC50; format: cell-based, human; conditions: 72 h exposure
Method: (§2) Human prostate PC3 and gastric SGC7901 cells were used throughout the examples of the present disclosure. Cells were cultured in Dulbecco's Modified Eagle Medium (DMEM) supplemented with 10% fetal calf serum (FCS), penicillin (100 kU L^−1) and streptomycin (0.1 g L^−1) at 37° C. in a 5% CO2-95% air atmosphere. Human gastric SGC7901 cells and prostate PC3 were incubated with these compounds at fixed concentrations or with water as a control to assess the inhibitory effect on cell growth. […] The cell survival versus drug concentration is plotted. Cytotoxicity was evaluated in vitro with reference to the IC50 value. The half maximal inhibitory concentration (IC50) is a measure of the effectiveness of a compound to inhibit biological or biochemical functions. According to the FDA, IC50 represents the concentration of a drug/compound/complex that is required for 50% inhibition in vitro. It is evaluated from the survival curves as the concentration needed for a 50% reduction of survival. IC50 values are expressed in μM. The IC50 values were calculated from dose-response curves obtained in replicate experiments.
(§3) The in vitro cytotoxic effect of mixed ligand gold(III) diamine complexes against androgen-resistant prostate PC3 and human gastric SGC7901 cancer cells were studied using MTT assay. […]

[5] = system: SGC7901 cells; experiment: In vitro cytotoxic MTT assay, IC50; format: cell-based, human; conditions: 72 h exposure
Method: as §2, §3

[6] = system: SGC7901 cells; conditions: cited from earlier work; for cytotoxicity with respect to cisplatin: SGC7901 cells
[7] = Stability by 1H and 13C NMR in D2O and DMSO-d6/D2O; format: physicochemical; conditions: DMSO-d6/D2O (2/1 v/v), room temperature
Method: The stability of complexes 1, 2 and 3 were tested in water as well as in a mixture of solvents i.e. DMSO/water (2/1 in v/v ratio) by ^1H and ^13C NMR measurements. To investigate the structural stability of the complexes, NMR spectra of the complexes dissolved in D2O; and in mixed DMSO-d6/D2O (2/1 in v/v ratio) solution were obtained just after dissolution, 24 h and 1 week at room temperature in mixed DMSO-d6/D2O and at 37° C. in D2O. At least 20 mg of complexes 1, 2 and 3 in 1 mL D2O at 37° C.; and in 1 mL DMSO-d6/D2O (2/1:v/v) at room temperature were subjected to ^1H and ^13C NMR measurements and followed by their spectral analysis. Immediately after dissolution of complexes 1, 2 and 3 in the respective solvents and duplicate samples were then stored at room temperature and 37° C., respectively, and analyzed again after 24 h and 1 week in order to determine stability of complexes. Since the complexes were not used beyond a week after dissolution, so NMR measurements were limited to one week.
NMR spectra of the complexes were obtained upon immediate dissolution to serve as reference spectra and later at 24 h and after 7 days at 37° C. in D2O and at room temperature in mixed DMSO-d6/D2O in order to determine their stability. […] For example, FIGS. 12A-B and 13A-B illustrated, respectively, the ^1H and ^13C NMR profiles of the compound 1 at just after mixing and after 7 days.

[8] = system: PC3 cells; conditions: cited from earlier work
[9] = system: chronic lymphocytic leukemia cells (CLL); conditions: cited from earlier work

| Structure (SMILES) | order of time dependent antiproliferative effect [1] | order of time dependent antiproliferative effect [2] | Ep, peak potential for reduction vs. ENH [3] [V] | cytotoxicity with respect to cisplatin [6] | further results |
| --- | --- | --- | --- | --- | --- |
| NCCN.N[C@@H]1CCCC[C@H]1N.[Cl][Au]([Cl])[Cl] (racemic) [Complex 2, trans-(±)-1,2-diaminocyclohexane ethylenediamine gold(III) chloride] | complex 1>complex 3>complex 2 | complex 1>complex 3>complex 2 | 0.46 |  |  |
| N.N.[Cl][Pt][Cl] [Cisplatin] |  |  |  |  | pIC50 [4]: 5.96; pIC50 [5]: 5.14; intrinsic resistance of SGC7901 relative to PC3 cells ([6]; SGC7901 vs PC3): 7-8 fold |
| NCCN.N[C@@H]1CCCC[C@@H]1N.[Cl][Au]([Cl])[Cl] [Complex 1, cis-1,2-diaminocyclohexane ethylenediamine gold(III) chloride] | complex 1>complex 3>complex 2 | complex 1>complex 3>complex 2 | 0.49 |  |  |
| NCCN.N[C@H]1CCCC[C@@H]1N.[Cl][Au]([Cl])[Cl] [Complex 3, (S,S)-(+)-1,2-diaminocyclohexane ethylenediamine gold(III) chloride] | complex 1>complex 3>complex 2 | complex 1>complex 3>complex 2 | 0.51 |  | dissociation of ethylenediamine (en) after 7 days [7]: 25% |
| NCCN.[Au+3].[Cl-].[Cl-].[Cl-] [[(en)AuCl2]Cl] |  |  |  | almost two fold more cytotoxic | lower cytotoxicity as compared to cisplatin [8]: 7-9 fold; cytotoxicity profile compared to cisplatin [9]: comparable to cisplatin |
| NCCN.NCCN.[Au+3].[Cl-].[Cl-].[Cl-] [[Au(en)2]Cl3] |  |  |  | slightly lower cytotoxicity | cytotoxic effect compared to cisplatin [8]: comparable to that of cisplatin |
